From ChEMBL document CHEMBL1153043, “Synthesis and evaluation of 1-(benzo[b]thiophen-2-yl)ethanone analogues as novel anti-osteoporosis agents acting on BMP-2 promotor” (Bioorg Med Chem Lett, 2009)

How the values were obtained:
Rattus norvegicus [1] = experiment: Antiosteoporotic activity in ovariectomized Sprague-Dawley rat assessed as trabecular bone volume at 7.5 mg/kg/day, po for 90 days by bone histomorphometry; type: functional, Trabecula
Rattus norvegicus [2] = experiment: Antiosteoporotic activity in ovariectomized Sprague-Dawley rat assessed as trabecular bone volume at 15 mg/kg/day, po for 90 days by bone histomorphometry; type: functional, Trabecula
Rattus norvegicus [3] = experiment: Antiosteoporotic activity in ovariectomized Sprague-Dawley rat assessed as trabecular bone volume at 30 mg/kg/day, po for 90 days by bone histomorphometry; type: functional, Trabecula
Rattus norvegicus [4] = experiment: Antiosteoporotic activity in ovariectomized Sprague-Dawley rat assessed as trabecula resorption surface at 7.5 mg/kg/day, po for 90 days by bone histomorphometry; type: functional
Rattus norvegicus [5] = experiment: Antiosteoporotic activity in ovariectomized Sprague-Dawley rat assessed as trabecula resorption surface at 15 mg/kg/day, po for 90 days by bone histomorphometry; type: functional
Rattus norvegicus [6] = experiment: Antiosteoporotic activity in ovariectomized Sprague-Dawley rat assessed as trabecula resorption surface at 30 mg/kg/day, po for 90 days by bone histomorphometry; type: functional
Rattus norvegicus [7] = experiment: Antiosteoporotic activity in ovariectomized Sprague-Dawley rat assessed as trabecula formation surface at 7.5 mg/kg/day, po for 90 days by bone histomorphometry; type: functional
Rattus norvegicus [8] = experiment: Antiosteoporotic activity in ovariectomized Sprague-Dawley rat assessed as trabecula formation surface at 15 mg/kg/day, po for 90 days by bone histomorphometry; type: functional
Rattus norvegicus [9] = experiment: Antiosteoporotic activity in ovariectomized Sprague-Dawley rat assessed as trabecula formation surface at 30 mg/kg/day, po for 90 days by bone histomorphometry; type: functional
Rattus norvegicus [10] = experiment: Antiosteoporotic activity in ovariectomized Sprague-Dawley rat assessed as mineral apposition rate at 7.5 mg/kg/day, po for 90 days by bone histomorphometry; type: functional
Rattus norvegicus [11] = experiment: Antiosteoporotic activity in ovariectomized Sprague-Dawley rat assessed as mineral apposition rate at 15 mg/kg/day, po for 90 days by bone histomorphometry; type: functional
Rattus norvegicus [12] = experiment: Antiosteoporotic activity in ovariectomized Sprague-Dawley rat assessed as mineral apposition rate at 30 mg/kg/day, po for 90 days by bone histomorphometry; type: functional
Rattus norvegicus [13] = experiment: Antiosteoporotic activity in ovariectomized Sprague-Dawley rat assessed as osteo cortex mineralization rate at 7.5 mg/kg/day, po for 90 days by bone histomorphometry; type: functional
Rattus norvegicus [14] = experiment: Antiosteoporotic activity in ovariectomized Sprague-Dawley rat assessed as osteo cortex mineralization rate at 15 mg/kg/day, po for 90 days by bone histomorphometry; type: functional
Rattus norvegicus [15] = experiment: Antiosteoporotic activity in ovariectomized Sprague-Dawley rat assessed as osteo cortex mineralization rate at 30 mg/kg/day, po for 90 days by bone histomorphometry; type: functional
Rattus norvegicus [16] = experiment: Antiosteoporotic activity in ovariectomized Sprague-Dawley rat assessed as average osteoid width at 7.5 mg/kg/day, po for 90 days by bone histomorphometry; type: functional
Rattus norvegicus [17] = experiment: Antiosteoporotic activity in ovariectomized Sprague-Dawley rat assessed as average osteoid width at 15 mg/kg/day, po for 90 days by bone histomorphometry; type: functional
Rattus norvegicus [18] = experiment: Antiosteoporotic activity in ovariectomized Sprague-Dawley rat assessed as average osteoid width at 30 mg/kg/day, po for 90 days by bone histomorphometry; type: functional
[19] = Toxicity in po dosed Kunming mouse; type: organism-based; settings: in vivo
[20] = Toxicity in ip dosed Kunming mouse; type: organism-based; settings: in vivo
Rattus norvegicus [21] = experiment: Toxicity in sham operated Sprague-Dawley rat assessed as effect on general behavior at 150 mg/kg/day, po for 90 days; type: organism-based; set-up: route oral; settings: in vivo, 2160 h
Rattus norvegicus [22] = experiment: Toxicity in sham operated Sprague-Dawley rat assessed as effect on glutamine-oxaloacetic transaminase level at 150 mg/kg/day, po for 90 days; type: organism-based; set-up: route oral; settings: in vivo, 2160 h
Rattus norvegicus [23] = experiment: Toxicity in sham operated Sprague-Dawley rat assessed as effect on glutamic-pyruvic transaminase level at 150 mg/kg/day, po for 90 days; type: organism-based; set-up: route oral; settings: in vivo, 2160 h
Rattus norvegicus [24] = experiment: Toxicity in sham operated Sprague-Dawley rat assessed as effect on total bilirubin level at 150 mg/kg/day, po for 90 days; type: organism-based; set-up: route oral; settings: in vivo, 2160 h
Rattus norvegicus [25] = experiment: Toxicity in sham operated Sprague-Dawley rat assessed as effect on alkaline phosphatase level at 150 mg/kg/day, po for 90 days; type: organism-based; set-up: route oral; settings: in vivo, 2160 h
Rattus norvegicus [26] = experiment: Toxicity in sham operated Sprague-Dawley rat assessed as effect on total protein level at 150 mg/kg/day, po for 90 days; type: organism-based; set-up: route oral; settings: in vivo, 2160 h
Rattus norvegicus [27] = experiment: Toxicity in sham operated Sprague-Dawley rat assessed as effect on albumin level at 150 mg/kg/day, po for 90 days; type: organism-based; set-up: route oral; settings: in vivo, 2160 h
Rattus norvegicus [28] = experiment: Toxicity in sham operated Sprague-Dawley rat assessed as effect on triglycerides level at 150 mg/kg/day, po for 90 days; type: organism-based; set-up: route oral; settings: in vivo, 2160 h
Rattus norvegicus [29] = experiment: Toxicity in sham operated Sprague-Dawley rat assessed as effect on total cholesterol level at 150 mg/kg/day, po for 90 days; type: organism-based; set-up: route oral; settings: in vivo, 2160 h
Rattus norvegicus [30] = experiment: Toxicity in sham operated Sprague-Dawley rat assessed as effect on direct-high density lipoprotein level at 150 mg/kg/day, po for 90 days; type: organism-based; set-up: route oral; settings: in vivo, 2160 h
Rattus norvegicus [31] = experiment: Toxicity in sham operated Sprague-Dawley rat assessed as effect on direct-low density lipoprotein level at 150 mg/kg/day, po for 90 days; type: organism-based; set-up: route oral; settings: in vivo, 2160 h
Rattus norvegicus [32] = experiment: Toxicity in sham operated Sprague-Dawley rat assessed as effect on glucose level at 150 mg/kg/day, po for 90 days; type: organism-based; set-up: route oral; settings: in vivo, 2160 h
Rattus norvegicus [33] = experiment: Toxicity in sham operated Sprague-Dawley rat assessed as effect on blood urea nitrogen level at 150 mg/kg/day, po for 90 days; type: organism-based; set-up: route oral; settings: in vivo, 2160 h
Rattus norvegicus [34] = experiment: Toxicity in sham operated Sprague-Dawley rat assessed as effect on creatinine level at 150 mg/kg/day, po for 90 days; type: organism-based; set-up: route oral; settings: in vivo, 2160 h
Rattus norvegicus [35] = experiment: Toxicity in sham operated Sprague-Dawley rat assessed as effect on calcium level at 150 mg/kg/day, po for 90 days; type: organism-based; set-up: route oral; settings: in vivo, 2160 h
Rattus norvegicus [36] = experiment: Toxicity in sham operated Sprague-Dawley rat assessed as effect on bone histomorphometric parameters at 150 mg/kg/day, po for 90 days; type: organism-based; set-up: route oral; settings: in vivo, 2160 h
Rattus norvegicus [37] = experiment: Antiosteoporotic activity in po dosed ovariectomized Sprague-Dawley rat assessed as trabecular bone volume administered for 90 days by bone histomorphometry; type: functional, organism-based; settings: Trabecula
Rattus norvegicus [38] = experiment: Antiosteoporotic activity in po dosed ovariectomized Sprague-Dawley rat assessed as trabecula formation surface administered for 90 days by bone histomorphometry; type: functional, organism-based
Rattus norvegicus [39] = experiment: Antiosteoporotic activity in po dosed ovariectomized Sprague-Dawley rat assessed as trabecula resorption surface administered for 90 days by bone histomorphometry; type: functional, organism-based
Rattus norvegicus [40] = experiment: Antiosteoporotic activity in po dosed ovariectomized Sprague-Dawley rat assessed as mineral apposition rate administered for 90 days by bone histomorphometry; type: functional, organism-based
Rattus norvegicus [41] = experiment: Antiosteoporotic activity in po dosed ovariectomized Sprague-Dawley rat assessed as osteo cortex mineralization rate administered for 90 days by bone histomorphometry; type: functional, organism-based
Rattus norvegicus [42] = experiment: Antiosteoporotic activity in po dosed ovariectomized Sprague-Dawley rat assessed as average osteoid width administered for 90 days by bone histomorphometry; type: functional, organism-based
[43] = Enhancement of BMP-2 expression in mouse MC3T3-E1 cells assessed as upregulation rate at 4 uM; type: functional, cell-based

## CC(=O)c1cc2ccccc2s1
Rattus norvegicus [1]
  Activity: 14.41%
Rattus norvegicus [2]
  Activity: 19.39%
Rattus norvegicus [3]
  Activity: 21.02%
Rattus norvegicus [4]
  Activity: 7.81%
Rattus norvegicus [5]
  Activity: 5.16%
Rattus norvegicus [6]
  Activity: 4.74%
Rattus norvegicus [7]
  Activity: 7.4%
Rattus norvegicus [8]
  Activity: 6.64%
Rattus norvegicus [9]
  Activity: 6.39%
Rattus norvegicus [10]
  Activity: 2.32 µm/day
Rattus norvegicus [11]
  Activity: 2.19 µm/day
Rattus norvegicus [12]
  Activity: 2.18 µm/day
Rattus norvegicus [13]
  Activity: 3.42 µm/day
Rattus norvegicus [14]
  Activity: 3.14 µm/day
Rattus norvegicus [15]
  Activity: 3.22 µm/day
Rattus norvegicus [16]
  Activity: 11.4 µm
Rattus norvegicus [17]
  Activity: 10.9 µm
Rattus norvegicus [18]
  Activity: 10.8 µm
[19]
  LD50: 5000 mg/kg
[20]
  LD50: 1580 mg/kg
Rattus norvegicus [21]
  Activity: Non-toxic
Rattus norvegicus [22]
  Activity: Non-toxic
Rattus norvegicus [23]
  Activity: Non-toxic
Rattus norvegicus [24]
  Activity: Non-toxic
Rattus norvegicus [25]
  Activity: Non-toxic
Rattus norvegicus [26]
  Activity: Non-toxic
Rattus norvegicus [27]
  Activity: Non-toxic
Rattus norvegicus [28]
  Activity: Non-toxic
Rattus norvegicus [29]
  Activity: Non-toxic
Rattus norvegicus [30]
  Activity: Non-toxic
Rattus norvegicus [31]
  Activity: Non-toxic
Rattus norvegicus [32]
  Activity: Non-toxic
Rattus norvegicus [33]
  Activity: Non-toxic
Rattus norvegicus [34]
  Activity: Non-toxic
Rattus norvegicus [35]
  Activity: Non-toxic
Rattus norvegicus [36]
  Activity: Non-toxic
Rattus norvegicus [37]
  Activity: Dose-dependent effect
Rattus norvegicus [38]
  Activity: Dose-dependent effect
Rattus norvegicus [39]
  Activity: Dose-dependent effect
Rattus norvegicus [40]
  Activity: Dose-dependent effect
Rattus norvegicus [41]
  Activity: Dose-dependent effect
Rattus norvegicus [42]
  Activity: Dose-dependent effect
[43]
  Activity: 35.6%
